The text below walks through data of ChEMBL document CHEMBL4622974, “Leveraging an Open Science Drug Discovery Model to Develop CNS-Penetrant ALK2 Inhibitors for the Treatment of Diffuse Intrinsic Pontine Glioma” (J Med Chem, 2020).

Experiment [1] addresses T1, TGF-beta receptor type-1 (Homo sapiens, UniProt P36897).
T1 sequence (P36897 whole entry): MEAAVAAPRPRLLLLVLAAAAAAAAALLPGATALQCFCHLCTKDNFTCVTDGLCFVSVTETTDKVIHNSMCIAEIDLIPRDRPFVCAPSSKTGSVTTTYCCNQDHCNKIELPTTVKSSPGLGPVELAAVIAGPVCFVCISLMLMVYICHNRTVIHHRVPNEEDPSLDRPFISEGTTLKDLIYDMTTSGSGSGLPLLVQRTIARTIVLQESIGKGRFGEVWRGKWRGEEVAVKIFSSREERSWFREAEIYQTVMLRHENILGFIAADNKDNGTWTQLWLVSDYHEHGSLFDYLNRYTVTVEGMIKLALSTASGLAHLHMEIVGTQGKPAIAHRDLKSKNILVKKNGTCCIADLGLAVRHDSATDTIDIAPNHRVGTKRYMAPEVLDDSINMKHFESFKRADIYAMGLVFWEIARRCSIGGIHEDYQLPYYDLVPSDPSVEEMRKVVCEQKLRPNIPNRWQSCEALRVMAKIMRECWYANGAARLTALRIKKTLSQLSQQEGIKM
Nature of the experiment: Inhibition of human ALK5 using casein as substrate in presence of [gamma-33P]-ATP by radiometric hotspot assay. The experiment is classed as ADME.

The target in experiment [2] is T2, Activin receptor type-1 (Homo sapiens, UniProt Q04771).
T2 sequence (Q04771 whole entry): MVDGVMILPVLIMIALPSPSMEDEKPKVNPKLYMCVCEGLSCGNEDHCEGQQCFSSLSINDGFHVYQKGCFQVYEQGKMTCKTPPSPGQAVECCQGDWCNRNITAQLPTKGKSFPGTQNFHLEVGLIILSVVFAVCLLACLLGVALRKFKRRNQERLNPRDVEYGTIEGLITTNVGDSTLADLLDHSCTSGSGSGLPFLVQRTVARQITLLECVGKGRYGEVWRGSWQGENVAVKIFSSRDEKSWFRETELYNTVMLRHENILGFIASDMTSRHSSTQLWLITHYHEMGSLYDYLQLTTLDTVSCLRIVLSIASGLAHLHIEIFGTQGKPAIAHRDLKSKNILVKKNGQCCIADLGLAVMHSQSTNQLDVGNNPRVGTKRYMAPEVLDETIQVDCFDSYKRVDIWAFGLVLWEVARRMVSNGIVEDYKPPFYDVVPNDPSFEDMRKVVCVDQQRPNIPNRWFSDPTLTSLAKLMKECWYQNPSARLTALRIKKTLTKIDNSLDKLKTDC
As to the kind of experiment: Competitive displacement of PBI-6908 from nanoluciferase-fused ALK2 (unknown origin) expressed in HEK293 cells incubated for 2 hrs by NanoBRET NanoGlo substrate based NanoBRET assay. In kind it is cell-based.

For experiment [3], the target named is T2, Activin receptor type-1. Nature of the experiment: Inhibition of human ALK2 using casein as substrate in presence of [gamma-33P]-ATP by radiometric hotspot assay.
Experiment [4] addresses T1, TGF-beta receptor type-1. As to the kind of experiment: Inhibition of recombinant human ALK5 expressed in HEK293 cells transfected with CAGA-luciferase and Renilla luciferase reporter after 24 hrs by dual luciferase reporter assay. In kind it is cell-based. (Reporter assays use an easily measured gene product as a stand-in for the process of interest.)

In general, IC50 refers to the midpoint of a concentration-inhibition curve. For `COc1cc(OC)cc(-c2cncc(-c3ccc(N4CCNCC4)cc3)c2C)c1`, the IC50 at TGF-beta receptor type-1 [1] was greater than 5000 nM; on Activin receptor type-1 [2] it was 440 nM; at Activin receptor type-1 [3] it was 39 nM; at TGF-beta receptor type-1 [4], greater than 5000 nM.
With `COc1cc(-c2cncc(-c3ccc(N4CCNCC4)cc3)c2C(F)(F)F)cc(OC)c1OC`, the IC50 was greater than 5000 nM at TGF-beta receptor type-1 [1], 184 nM at Activin receptor type-1 [2], 67 nM at Activin receptor type-1 [3] and greater than 5000 nM on TGF-beta receptor type-1 [4].
`COc1cc(-c2cncc(-c3ccc(C4=CCN(C)CC4)cc3)c2C)cc(OC)c1OC`: the IC50 on TGF-beta receptor type-1 [1] turned out to be 2520 nM; on Activin receptor type-1 [2] it was 102 nM; on Activin receptor type-1 [3], 14 nM; at TGF-beta receptor type-1 [4] it was 7800 nM.
Consider `COc1cc(-c2cncc(-c3ccc(N4CCN(CCF)CC4)cc3)c2C)cc(OC)c1OC`, for which the IC50 was 3210 nM on TGF-beta receptor type-1 [1], 178 nM at Activin receptor type-1 [2], 17 nM on Activin receptor type-1 [3] and greater than 5000 nM on TGF-beta receptor type-1 [4].
As to `COc1cc(-c2cncc(-c3ccc(N4CCN(C(C)=O)CC4)cc3)c2C)cc(OC)c1OC`, the IC50 on TGF-beta receptor type-1 [1] was 2520 nM; at Activin receptor type-1 [2] it was 267 nM; on Activin receptor type-1 [3] it was 22 nM; at TGF-beta receptor type-1 [4], greater than 5000 nM.
With `COc1cc(-c2cncc(-c3ccc(N4CCNCC4)cc3)c2C2CC2)cc(OC)c1OC`, the IC50 at TGF-beta receptor type-1 [1] was 4660 nM; at Activin receptor type-1 [2] it was 159 nM; at Activin receptor type-1 [3], 42 nM; on TGF-beta receptor type-1 [4] it was greater than 5000 nM.
With `COc1cc(-c2cncc(-c3ccc(N4CCS(=O)(=O)CC4)cc3)c2C)cc(OC)c1OC`, the IC50 was 1230 nM on TGF-beta receptor type-1 [1], 169 nM on Activin receptor type-1 [2], 16 nM on Activin receptor type-1 [3] and greater than 5000 nM at TGF-beta receptor type-1 [4].
For `COc1cc(-c2cncc(-c3ccc(CN4CCN(C)CC4)cc3)c2C)cc(OC)c1OC`, the IC50 was 2640 nM at TGF-beta receptor type-1 [1], 108 nM at Activin receptor type-1 [2], 20 nM on Activin receptor type-1 [3] and greater than 5000 nM at TGF-beta receptor type-1 [4].
As to `COc1cc(-c2cncc(-c3ccc(N4CCCNCC4)cc3)c2C)cc(OC)c1OC`, the IC50 amounted to 3050 nM on TGF-beta receptor type-1 [1], 83 nM at Activin receptor type-1 [2], 13 nM at Activin receptor type-1 [3] and 4530 nM on TGF-beta receptor type-1 [4].
Taken in the same sequence, the figures for `CCc1c(-c2ccc(N3CCNCC3)cc2)cncc1-c1cc(OC)c(OC)c(OC)c1` were greater than 5000 nM, 589 nM, 181 nM and greater than 5000 nM.
For `COc1cc(-c2cncc(-c3ccc(N4CCNCC4)cc3)c2N)cc(OC)c1OC`, the 50% inhibitory concentration (IC50) at TGF-beta receptor type-1 [1] was greater than 5000 nM; on Activin receptor type-1 [2] it was 255 nM; on Activin receptor type-1 [3], 461 nM; on TGF-beta receptor type-1 [4], greater than 5000 nM.
Regarding `COc1cc(-c2cncc(-c3ccc(N4CCN(C)CC4)cc3)c2C)cc(OC)c1OC`, the IC50 on TGF-beta receptor type-1 [1] was 4850 nM; at Activin receptor type-1 [2], 56 nM; at Activin receptor type-1 [3], 9 nM; on TGF-beta receptor type-1 [4], greater than 5000 nM.
Turning to `COc1cc(-c2cncc(-c3ccc(N4CCNCC4)cc3)c2C#N)cc(OC)c1F`, the concentration for half-maximal inhibition (IC50) on TGF-beta receptor type-1 [1] stood at 487 nM; at Activin receptor type-1 [2], 49 nM; on Activin receptor type-1 [3] it was 11 nM; at TGF-beta receptor type-1 [4], 1510 nM.
Take `COc1cc(-c2cncc(-c3ccc(OC4CCN(C)CC4)cc3)c2C)cc(OC)c1OC`: the concentration for half-maximal inhibition (IC50) at TGF-beta receptor type-1 [1] came to 1650 nM; on Activin receptor type-1 [2], 67 nM; at Activin receptor type-1 [3], 6 nM; on TGF-beta receptor type-1 [4] it was 2090 nM.
Taken in the same sequence, the figures for `COc1cc(-c2cncc(-c3ccc(C4CCNCC4)cc3)c2C)cc(OC)c1OC` were 1750 nM, 54 nM, 9 nM and 3420 nM.
`COc1cc(-c2cncc(-c3ccc(N4CCOCC4)cc3)c2C)cc(OC)c1OC`: the IC50 is 2360 nM at TGF-beta receptor type-1 [1], 334 nM at Activin receptor type-1 [2], 28 nM at Activin receptor type-1 [3] and greater than 5000 nM on TGF-beta receptor type-1 [4].
Taken in the same sequence, the figures for `COc1cc(-c2cncc(-c3ccc(N4CCNCC4)cc3)c2OC)cc(OC)c1OC` were greater than 5000 nM, 233 nM, 103 nM and greater than 5000 nM.
